Measurements published in patent publication US11446287B2, “Compounds and methods for EP300 or CBP modulation and indications therefor” (Opna Immuno-Oncology SA, priority 2019, dated 2022).

What follows are compounds tested against T1, Recombinant human CBP containing the bromodomain (CBP-BD (1043-1159)) (Homo sapiens, UniProt Q92793) (assay: CBP Alphascreen binding assay). Settings: read-out: CREBBP (CBP) IC50.
T1 construct: Recombinant human CBP bromodomain (CBP-BD (1043-1159)); made in house; host or cells: E. coli BL21-CodonPlus (DE3), modified pET vector
T1 sequence (Q92793 1081-1197): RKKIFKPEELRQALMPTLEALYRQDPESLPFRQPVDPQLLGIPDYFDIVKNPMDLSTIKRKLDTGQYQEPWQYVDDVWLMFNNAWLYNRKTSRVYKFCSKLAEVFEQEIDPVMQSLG
Procedure: CBP Alphascreen Binding Assay
Binding of compounds of Formula (I) with CBP was assessed using Alphascreen™ binding assay. The inhibition of the interaction between the CBP bromodomain and its acetylated target protein was measured quantitatively using recombinant CBP, an acetylated Histone 3 peptide and AlphaScreen™ technology. In absence of inhibition of the CBP protein bound to AlphaScreen™ nickel chelate acceptor beads can interact with the acetylated Histone 3 peptide which was immobilized by the AlphaScreen™ Streptavidin coated beads. This interaction brings donor and acceptor beads in proximity. The close proximity allows the singlet oxygen produced by laser excitation of the donor beads to reach the acceptor beads and generate a luminescence signal. CBP inhibitors result in a decrease in the proximity signal through an inhibition of the CBP—acetylated peptide interaction.
Recombinant human CBP containing the bromodomain (CBP-BD (1043-1159)) was prepared and purified as described in protein expression and purification session. The peptide was human Histone H345-64K56Ac-Biotin (Anaspec CA, USA).
Protocol for CBP assay: All components are prepared in buffer composed of 50 mM HEPES pH 7.5, 50 mM NaCl, 0.01% BSA, 0.01% Triton X-100, 2 mM DTT. Test compounds and DMSO vehicle are diluted 1:50 in buffer and a 4 μL volume was transferred to an Alphaplate. 5.5 μL of CBP protein and 5.5 μL of peptide are added to wells containing 4 μL of various concentrations of test compounds of Formula (I) or DMSO vehicle in an Alphaplate (PerkinElmer GA, USA) and incubated for 1 hour at room temperature. 5 μL donor and acceptor bead mixture was then added with final concentrations of 7.5 μg/ml. 60 minutes after bead addition, Alpha signal was read on the Envision spectrometer (λEx 680 nm, λEm 520-620 nm). Final concentrations of bromodomain proteins and peptide are as shown below.
All data were normalized to the mean of 16 high and 16 low control wells on each plate. A four parameter curve fit of the following formula was then applied: Y=A+((B−A)/(1+((C/x)^D))) Where ‘A’ is the minimum, ‘B’ is the maximum, ‘C’ is the IC50 and ‘D’ is the Hill slope. Protein Expression and Purification
Recombinant human CBP bromodomain (CBP-BD (1043-1159)) was expressed in E. coli cells (in a modified pET vector) with an N-terminal six-His tag and purified using a combination of both IMAC (Ni-affinity) and size exclusion chromatography steps.
Recombinant CBP protein was expressed using the E. coli strain BL21-CodonPlus (DE3) (Agilent Technologies CA, USA). Cells were grown in Terrific Broth (TB) media to an OD600 of 0.92 at 37° C. at which temperature was reduced to 20° C., protein was induced with 1.0 mM isopropyl-β-D-thiogalactopyranoside (“IPTG”) for 20 hours and harvested by centrifugation at 8500×g for 20 minutes. Cells were re-suspended in 0.1M K2PO4 pH 8.0, 250 mM NaCl, 10% Glycerol, 0.75% NP-40, 25 mM Imidazole, with 0.2 mg/ml Lysozyme, 0.2 mM phenylmethanesulfonyl fluoride (“PMSF”), […] (“BME”), 25 μg/ml DNase I, incubated on ice for 30 minutes and lysed with a cell disruptor (MicroFluidics MA, USA). The lysate was clarified by centrifugation at 20,000×g for 1 hour. The protein was captured with Ni-NTA resin (Life Technologies, USA). Contaminating proteins were washed off with 40 mM HEPES pH 7.5, 500 mM NaCl, 5% Glycerol, 5 mM Imidazole, and 5 mM BME. Following 3× wash steps, protein was eluted using 400 mM Imidazole in 40 mM HEPES pH 7.5, 400 mM NaCl, and 5 mM BME. The protein was further purified using a size exclusion column (26/600 Superdex 200, GE Biosciences NJ, USA) in 40 mM HEPES pH 7.5, 250 mM NaCl, 5 mM BME. The protein was aliquoted and flash-frozen in liquid Nitrogen.
Compound `Cc1noc(C)c1-c1cnc2c(c1)c(-c1ccc(C(=O)O)cc1OCC(F)(F)F)cn2[C@@H](C)c1ccccn1` [P-0115, (S)-4-(5-(3,5-dimethylisoxazol-4-yl)-1-(1-(pyridin-2-yl)ethyl)-1H-pyrrolo[2,3-b]pyridin-3-yl)-3-(2,2,2-trifluoroethoxy)benzoic acid] has an IC50 of 0.0001 to 1 µM. For `Cc1noc(C)c1-c1cnc2c(c1)c(-c1ccc(C(=O)O)cc1C(F)(F)F)cn2[C@@H](C)c1ccccn1` [P-0116, (S)-4-(5-(3,5-dimethylisoxazol-4-yl)-1-(1-(pyridin-2-yl)ethyl)-1H-pyrrolo[2,3-b]pyridin-3-yl)-3-(trifluoromethyl)benzoic acid], the IC50 was 0.0001 to 1 µM. `CCCOc1cc(C(=O)O)cc(OCCC)c1-c1cn([C@@H](C)c2ccccn2)c2ncc(-c3c(C)noc3C)cc12` [P-0117, (S)-4-(5-(3,5-dimethylisoxazol-4-yl)-1-(1-(pyridin-2-yl)ethyl)-1H-pyrrolo[2,3-b]pyridin-3-yl)-3,5-dipropoxybenzoic acid] gave an IC50 of 0.0001 to 1 µM. Work on `Cc1noc(C)c1-c1cnc2c(c1)c(-c1c(OC(C)C)cc(C(=O)O)cc1OC(C)C)cn2[C@@H](C)c1ccccn1` [P-0118, (S)-4-(5-(3,5-dimethylisoxazol-4-yl)-1-(1-(pyridin-2-yl)ethyl)-1H-pyrrolo[2,3-b]pyridin-3-yl)-3,5-diisopropoxybenzoic acid] yielded an IC50 of 0.0001 to 1 µM. In the case of `COc1cc(C(=O)O)cc(OC)c1-c1cn(C(C)c2ccccc2)c2cc(-c3c(C)noc3C)cnc12` (stereo not drawn) [P-0119, 4-(6-(3,5-dimethylisoxazol-4-yl)-1-(1-phenylethyl)-1H-pyrrolo[3,2-b]pyridin-3-yl)-3,5-dimethoxybenzoic acid], the IC50 is reported as 0.0001 to 1 µM. `Cc1noc(C)c1-c1cnc2c(-c3ccccc3C(=O)O)cn(C(C)c3ccccc3)c2c1` (stereo not drawn) [P-0120, 2-(6-(3,5-dimethylisoxazol-4-yl)-1-(1-phenylethyl)-1H-pyrrolo[3,2-b]pyridin-3-yl)benzoic acid] showed an IC50 of 1 to 8 µM. With `Cc1noc(C)c1-c1cnc2c(C(=O)C3CCC3)cn(-c3c(Cl)cc(C(=O)O)cc3Cl)c2c1` [P-0121, 3,5-dichloro-4-(3-(cyclobutanecarbonyl)-6-(3,5-dimethylisoxazol-4-yl)-1H-pyrrolo[3,2-b]pyridin-1-yl)benzoic acid] the IC50 was 0.0001 to 1 µM. Work on `Cc1noc(C)c1-c1cnc2c(c1)c(-c1cccc(C(=O)O)n1)cn2C(C)c1ccccn1` (stereo not drawn) [P-0122, 6-(5-(3,5-dimethylisoxazol-4-yl)-1-(1-(pyridin-2-yl)ethyl)-1H-pyrrolo[2,3-b]pyridin-3-yl)picolinic acid] yielded an IC50 of 1 to 8 µM. Compound `Cc1noc(C)c1-c1cnc2c(c1)c(-c1ccc(C(=O)O)cn1)cn2C(C)c1ccccn1` (stereo not drawn) [P-0123, 6-(5-(3,5-dimethylisoxazol-4-yl)-1-(1-(pyridin-2-yl)ethyl)-1H-pyrrolo[2,3-b]pyridin-3-yl)nicotinic acid] has an IC50 of 0.0001 to 1 µM. `Cc1noc(C)c1-c1cnc2c(c1)c(-c1cc(C(=O)O)ccn1)cn2C(C)c1ccccn1` (stereo not drawn) [P-0124, 2-(5-(3,5-dimethylisoxazol-4-yl)-1-(1-(pyridin-2-yl)ethyl)-1H-pyrrolo[2,3-b]pyridin-3-yl)isonicotinic acid] gave an IC50 of 0.0001 to 1 µM. `Cc1noc(C)c1-c1cnc2c(c1)c(-c1ccc(F)c(C(=O)O)c1F)cn2[C@@H](C)c1ccccn1` [P-0125, (S)-3-(5-(3,5-dimethylisoxazol-4-yl)-1-(1-(pyridin-2-yl)ethyl)-1H-pyrrolo[2,3-b]pyridin-3-yl)-2,6-difluorobenzoic acid] gave an IC50 of 0.0001 to 1 µM. `Cc1noc(C)c1-c1cnc2c(c1)c(-c1ccnc(C(=O)O)n1)cn2C(C)c1ccccn1` (stereo not drawn) [P-0126, 4-(5-(3,5-dimethylisoxazol-4-yl)-1-(1-(pyridin-2-yl)ethyl)-1H-pyrrolo[2,3-b]pyridin-3-yl)pyrimidine-2-carboxylic acid] gave an IC50 of 0.0001 to 1 µM. With `CCCOc1cc(C(=O)O)cc(OCCC)c1-n1cc(CC2CCC2)c2ncc(-c3c(C)noc3C)cc21` [P-0127, 4-(3-(cyclobutylmethyl)-6-(3,5-dimethylisoxazol-4-yl)-1H-pyrrolo[3,2-b]pyridin-1-yl)-3,5-dipropoxybenzoic acid] the IC50 was 0.0001 to 1 µM. With `Cc1noc(C)c1-c1cnc2c(Cc3cccc(Cl)c3)cn(-c3c(Cl)cc(C(=O)O)cc3Cl)c2c1` [P-0128, 3,5-dichloro-4-(3-(3-chlorobenzyl)-6-(3,5-dimethylisoxazol-4-yl)-1H-pyrrolo[3,2-b]pyridin-1-yl)benzoic acid] the IC50 was 0.0001 to 1 µM. For `Cc1noc(C)c1-c1cnc2c(C(=O)c3cccc(OC(F)F)c3)cn(-c3c(Cl)cc(C(=O)O)cc3Cl)c2c1` [P-0129, 3,5-dichloro-4-(3-(3-(difluoromethoxy)benzoyl)-6-(3,5-dimethylisoxazol-4-yl)-1H-pyrrolo[3,2-b]pyridin-1-yl)benzoic acid], the IC50 was 0.0001 to 1 µM. In the case of `Cc1noc(C)c1-c1cnc2c(CC3CCC3)cn(-c3ccc([N+](=O)[O-])cc3F)c2c1` [P-0130, 4-(3-(cyclobutylmethyl)-1-(2-fluoro-4-nitrophenyl)-1H-pyrrolo[3,2-b]pyridin-6-yl)-3,5-dimethylisoxazole], the IC50 is reported as 8 to 1000 µM. `Cc1noc(C)c1-c1cnc2c(Cc3ccccc3Cl)cn(-c3c(Cl)cc(C(=O)O)cc3Cl)c2c1` [P-0131, 3,5-dichloro-4-(3-(2-chlorobenzyl)-6-(3,5-dimethylisoxazol-4-yl)-1H-pyrrolo[3,2-b]pyridin-1-yl)benzoic acid] showed an IC50 of 0.0001 to 1 µM. `Cc1noc(C)c1-c1cnc2c(Cc3cccc(OCc4ccccc4)c3)cn(-c3c(Cl)cc(C(=O)O)cc3Cl)c2c1` [P-0132, 4-(3-(3-(benzyloxy)benzyl)-6-(3,5-dimethylisoxazol-4-yl)-1H-pyrrolo[3,2-b]pyridin-1-yl)-3,5-dichlorobenzoic acid] showed an IC50 of 0.0001 to 1 µM. Work on `Cc1noc(C)c1-c1cnc2c(C(=O)c3cccc(OCc4ccccc4)c3)cn(-c3c(Cl)cc(C(=O)O)cc3Cl)c2c1` [P-0133, 4-(3-(3-(benzyloxy)benzoyl)-6-(3,5-dimethylisoxazol-4-yl)-1H-pyrrolo[3,2-b]pyridin-1-yl)-3,5-dichlorobenzoic acid] yielded an IC50 of 0.0001 to 1 µM. `COc1ccc(-n2cc(CC3CCC3)c3ncc(-c4c(C)noc4C)cc32)cn1` [P-0134, 4-(3-(cyclobutylmethyl)-1-(6-methoxypyridin-3-yl)-1H-pyrrolo[3,2-b]pyridin-6-yl)-3,5-dimethylisoxazole] showed an IC50 of 1 to 8 µM. Work on `COc1cc(C(=O)O)cc(OCc2ccccc2)c1-c1cn([C@@H](C)c2ccccn2)c2ncc(-c3c(C)noc3C)cc12` [P-0135, (S)-3-(benzyloxy)-4-(5-(3,5-dimethylisoxazol-4-yl)-1-(1-(pyridin-2-yl)ethyl)-1H-pyrrolo[2,3-b]pyridin-3-yl)-5-methoxybenzoic acid] yielded an IC50 of 0.0001 to 1 µM. `COc1c(C(=O)O)cccc1-c1cn(C(C)c2ccccc2)c2cc(-c3c(C)noc3C)cnc12` (stereo not drawn) [P-0136, 3-(6-(3,5-dimethylisoxazol-4-yl)-1-(1-phenylethyl)-1H-pyrrolo[3,2-b]pyridin-3-yl)-2-methoxybenzoic acid] was tested, and the IC50 was 0.0001 to 1 µM. In the case of `Cc1noc(C)c1-c1cnc2c(c1)c(-c1ccc(C(=O)O)cc1OC1COC1)cn2[C@@H](C)c1ccccn1` [P-0137, (S)-4-(5-(3,5-dimethylisoxazol-4-yl)-1-(1-(pyridin-2-yl)ethyl)-1H-pyrrolo[2,3-b]pyridin-3-yl)-3-(oxetan-3-yloxy)benzoic acid], the IC50 is reported as 0.0001 to 1 µM. Work on `Cc1noc(C)c1-c1cnc2c(c1)c(-c1ccc(C(=O)O)cc1OCC1CC1)cn2[C@@H](C)c1ccccn1` [P-0138, (S)-3-(cyclopropylmethoxy)-4-(5-(3,5-dimethylisoxazol-4-yl)-1-(1-(pyridin-2-yl)ethyl)-1H-pyrrolo[2,3-b]pyridin-3-yl)benzoic acid] yielded an IC50 of 0.0001 to 1 µM.
